Data published in patent US11091429B2, “Organic compounds” (Givaudan SA, priority 2012, dated 2021).

Assays:
Tasting in cheese sauce = details: 0.5 PPM in cheese sauce 5% fat 1.6% salt
Experimental: (§1) The following formulations were prepared and tasted by trained panelists.
Cheese sauce: 5% fat 1.6% salt
(§2) Samples were prepared and evaluated by expert tasters. Tasters were asked to describe the samples focusing on authentic taste, mouthfeel, fullness, salivation, salty-ness, umami, sweetness, juiciness, richness, long lastingness and fattiness.
Cheese Sauce: 5% Fat 1.6% Salt

[1] = Test in pineapple flavoured drink; details: 1 ppm; water, 8% sugar, 0.1% citric acid, pineapple flavour 0.03%
Experimental: (§3) Samples were prepared and evaluated by expert tasters. Tasters were asked to describe the samples focusing on authentic taste, mouthfeel, fullness, salty-ness, salivation, umami, sweetness, juiciness, richness, long lastingness and fattiness.
Test in Pineapple Flavoured Drink:
Base is water, 8% sugar, 0.1% citric acid and proprietary pineapple flavour at 0.03%
(§4) Samples were evaluated by expert tasters. Tasters were asked to describe the samples focusing on authentic taste, mouthfeel, fullness, salty-ness, salivation, umami, sweetness, juiciness, richness, long lastingness and fattiness.

[2] = Tasting in UHT sweetened banana flavoured milk; details: banana flavour 0.04%
Experimental: UHT Sweetened Banana Flavoured Milk, With Different Fat Levels
In a UHT milk with 0% and 3% fat sweetened with 4% sucrose by weight, flavoured with proprietary banana flavour dosed at 0.04%. C18:2 gaba was added at 0.25 ppm, 0.5 ppm and 1 ppm.
(§5) Samples were evaluated by expert tasters. Tasters were asked to describe the samples focusing on authentic taste, mouthfeel, fullness, salivation, sweetness, juiciness, richness, long lastingness and fattiness.

[3] = Tasting in chocolate milk
Experimental: Chocolate Milk with Different Fat Content […]
as §5

Tasting in fish sauce = assay: Tasting in fish sauce
Experimental: as §1
Salt level pure product between 5-40%
Salt level in application 0.3-1.0%
as §2

Tasting in pilaf = details: cooked rice with 10% of the butter flavoured at 1 ppm
Experimental: as §1

[4] = Tasting in yoghurt, cream flavoured; details: 2 ppm, cream flavour 0.03%
Experimental: Yoghurt Cream Flavoured, Non-Sweetened and Different Fat Levels
In a Yoghurt containing 0% 1.5% and 3% fat, flavoured with proprietary cream flavour dosed at 0.03%, C18:2-gaba was added at 2 ppm. Samples were evaluated by expert tasters. Tasters were asked to describe the samples focusing on authentic taste, acidity, mouthfeel, fullness, salivation, sweetness, juiciness, richness, long lastingness and fattiness.

[5] = Tasting in strawberry drink; details: 2 ppm; 7% sucrose, 0.1% citric acid, strawberry flavour 0.015%
Outline: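 Strawberry drink base (water, 7% sucrose, 0.1% citric acid, 0.015% proprietary strawberry flavour) served as matrix for descriptive evaluation. Expert panel rated umami, sweetness, saltiness, salivation, juiciness, richness, fullness, fattiness, mouthfeel, authentic taste and long-lastingness.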

[6] = Tasting in vanilla milk 0.15% fat; details: 2 ppm, 4% sucrose, Vaniline 10 ppm + vanilla extract 0.03%
Outline: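 Expert panel tasted samples in 0.15% fat milk sweetened with 4% sucrose and flavoured with vaniline at 10 ppm plus vanilla extract at 0.03%. Descriptors covered authentic taste, mouthfeel, fullness, saltiness, salivation, umami, sweetness, juiciness, richness, long-lastingness and fattiness.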

[7] = Tasting in spreadable cheese; details: 0.5 PPM in spreadable cheese (Eru)
Experimental: as §1, §3
Test on “Eru Prestige” Spreadable Cheese
Base is Eru prestige (market product)
as §2

[8] = Test on Baileys cream liqueur; details: 1 ppm, 17% alcohol
Experimental: Test on Baileys Cream Liqueur:
In Baileys cream liqueur (Market Product) containing 17% alcohol, carbohydrates 25% and 13% fat C18:2-gaba was added at 1 ppm.
Samples were evaluated by expert tasters. Tasters were asked to describe the samples focusing on authentic taste, alcohol impact, mouthfeel, fullness, salivation, sweetness, bitterness, richness, long lastingness and fattiness.
Base is Baileys cream liqueur
as §4
Base: Baileys cream liqueur (containing 17% alcohol, carbohydrates 25% and 13% fat)

## CCCCC/C=C\C/C=C\CCCCCCCC(=O)NCCCC(=O)O [C18:2-gaba]
Tasting in cheese sauce
  tasting result: Full, Salty, cheese bite expanding
[1]
  tasting result: very ripe, jammy, long lasting and sweet
[2]; 0.25 ppm, UHT milk 0% fat
  tasting result: fuller banana, more authentic, more sweet
[2]; 0.25 ppm, UHT milk 3% fat
  tasting result: more authentic, less estery and more round
[2]; 0.5 ppm, UHT milk 0% fat
  tasting result: fuller banana, authentic, creamy and sweet, more mouthfeel
[2]; 0.5 ppm, UHT milk 3% fat
  tasting result: creamy banana
[2]; 1 ppm, UHT milk 0% fat
  tasting result: creamy, creamy banana, sweet aftertaste, more mouthfeel and very longlasting
[2]; 1 ppm, UHT milk 3% fat
  tasting result: creamy long lasting and more authentic and more impact
[3]; 0.5 ppm, chocolate milk 1.8% fat
  tasting result: stronger cocoa note, more chocolate vs cocoa
[3]; 0.5 ppm, chocolate milk 3% fat
  tasting result: very creamy, enhanced cocoa note
[3]; 1 ppm, chocolate milk 1.8% fat
  tasting result: very creamy, chocolate, long-lasting creamy and chocolate taste
[3]; 1 ppm, chocolate milk 3% fat
  tasting result: very creamy, lasting, sweet, almost taste like chocolate ice cream
Tasting in fish sauce; 0.5 ppm in 1% diluted fish sauce (0.27% salt)
  tasting result: stronger in umami, longer lasting and richer
Tasting in fish sauce; 0.5 ppm in pure fish sauce (27% salt)
  tasting result: strong in body and mouthfeel, more salty, richer with more rounded fish notes
Tasting in pilaf
  tasting result: more mouthfeel, with a lingering creamy authentic butter taste
[4]; yoghurt 0% fat
  tasting result: less acidic, slight creamy aftertaste
[4]; yoghurt 1.5% fat
  tasting result: very creamy, thick, nice long lasting, whipped cream note
[4]; yoghurt 3% fat
  tasting result: less acidic, much more creamy, very long lasting creamy aftertaste
[5]
  tasting result: fatty mouthfeel, creamy strawberry, fruity and juicy
[6]
  tasting result: fatty, long lasting authentic vanilla, vanilla bean taste is enhanced
[7]
  tasting result: full salty, much more cheese bite, umami, lingering, long lasting
[7]; listed as C18:2 gaba
  tasting result: Full, Salty, cheese bite, more mature
[8]
  tasting result: strongly enhanced alcohol effect, more cocoa, very creamy and long lasting aftertaste
